Measured values reported in patent US7955852B2, “Expansion of renewable stem cell populations” (Gamida Cell Ltd., priority 2002, dated 2011).

Tested on: CD34+ cells
Assay: Ex-vivo expansion of CD34+ cell enriched cord blood cultures with cytokines; cell counts and FACS surface antigen analysis
Assay type: cell-based, human
Settings: for No. of CD34+ cells: treated for one week only; for % 34+ cells / % 34+/38− cells / % 34+/Lin− cells / No. of cells (×10^4): two weeks after seeding, 4 cytokines
Experimental: Human blood cells were obtained from umbilical cord blood from female patients following full-term, normal delivery (informed consent was obtained).
Samples were collected and processed within 12 hours postpartum. Blood was mixed with 3% Gelatin (Sigma, St. Louis, Mo.), sedimented for 30 minutes to remove most red blood cells. […] The mononuclear cell fraction in the interface layer was collected, washed three times and resuspended in phosphate-buffered saline (PBS) solution (Biological Industries) containing 0.5% bovine serum albumin (BSA, Fraction V; Sigma).
To purify CD34^+ mononuclear cells, the fraction was subjected to two cycles of immuno-magnetic separation using the MiniMACS® or Clinimax® CD34 Progenitor Cell Isolation Kit (Miltenyi Biotec, Auburn, Calif.) as per manufacturer's recommendations.
CD34^+ expressing purified cells above were cultured in 24-well Costar Cell Culture Clusters (Corning Inc., Corning, N.Y.) or culture bags (American Fluoroseal Corp), at a concentration of 10^4 cells/ml in alpha medium (Biological Industries, Beit Haemek, Israel) supplemented with 10% fetal bovine serum (FBS, Biological Industries). The following human recombinant cytokines were added: Thrombopoietin (TPO), interleukin-6 (IL-6), FLT-3 ligand and stem cell factor (SCF), all at final concentrations of 50 ng/ml each, though occasionally IL-3, at a concentration of 20 ng/ml, was added either together or instead of SCF. For non-hematopoietic cell differentiation, FGF, EGF, NGF, VEGF, LIF or Hepatocyte growth factor (HGF) were used to supplement the growth medium, either alone or in various combinations. All cytokines used were purchased from Perpo Tech, Inc. (Rocky Hill, N.J.). The cultures were incubated at 37° C., 5% CO2, in a humidified atmosphere.
At weekly intervals, cell cultures were toped and semi-depopulated and were supplemented with fresh medium, serum and cytokines or supplemented with fresh growth medium, alone. At predetermined time points, cells were harvested, stained with trypan blue, counted, and cell morphology was determined via the use of cytospin (Shandon, UK)-prepared smears stained with May-Grunwald/Giemsa solutions.
CD34^+ purified and whole MNC cultures were prepared and maintained as described above. […] The antagonist was added for a predetermined, limited period, for up to three weeks or continuously during the entire culture period.
Cells were harvested, washed with a PBS solution containing 1% bovine sera albumin (BSA) and 0.1% sodium azide (Sigma), and stained at 4° C. for 60 minutes with fluorescein isothiocyanate or phycoerythrin-conjugated antibodies (all from Immunoquality Products, the Netherlands). The cells were then washed with the same buffer and analyzed by FACS caliber or Facstarplus flow cytometers. Cells were passed at a rate of 1000 cells/second, using saline as the sheath fluid. A 488 nm argon laser beam served as the light source for excitation. Emission of ten thousand cells was measured using logarithmic amplification, and analyzed using CellQuest software. Negative control staining of cells was accomplished with mouse IgG-PE (Dako A/S Glostrup, Denmark) and mouse IgG-FITC (BD Biosciences, Erembodegem, Belgium).
CD34 surface expression on short and long-term cultures initiated either with purified CD34^+ cells or the entire MNC fraction was determined as follows: CD34^+ cells were positively reselected (Miltenyi kit) and counted. Purity was confirmed by subsequent FACS and cell morphology analysis.
Reselected CD34^+ cell subsets were stained for the following combination of antigens: CD34PE/CD38FITC and CD34PE/38, 33, 14, 15, 3, 4, 61, 19 (Lin) FITC. The fraction positive for CD34 and negative for CD38 was defined as CD34^+CD38^−. The fraction positive for CD34 and negative for LIN was defined as CD34^+Lin^− cell fraction.
FACS analysis results are given as percentage values of cells. Absolute numbers of subsets are calculated from the absolute number of CD34^+ cells.

[1] = 2 weeks expansion, re-selected CD34+ cell fraction (FIG. 2)

In the case of `CCc1ccc(C2=CC(C)(C)Sc3ccc(C#Cc4ccc(C(=O)O)cc4)cc32)cc1` [AGN 194310, 4-[[4-(4-ethylphenyl)-2,2-dimethyl-(2H)-thiochroman-6-yl]-ethynyl]benzoic acid], the “increase in CD34+CD38− surface expression” value [1] is reported as 1000 fold, the “increase in CD34+Lin− surface expression” value [1] is reported as 500 fold and the “No. of CD34+ cells” value (10^−5 M, week 13) is reported as 10322. The “No. of CD34+ cells” value (10^−5 M, week 20) was 0, the “% 34+ cells” value (10^−5 M) was 18.94% and the “% 34+/38− cells” value (10^−5 M) was 17.14%. The “% 34+/Lin− cells” value (10^−5 M) was 15.18%, the “No. of cells (×10^4)” value (10^−5 M) was 42 ×10^4 and the “% 34+ cells” value (10^−6 M) was 19.59%. The “% 34+/38− cells” value (10^−6 M) was 17.16%, the “% 34+/Lin− cells” value (10^−6 M) was 11.91% and the “No. of cells (×10^4)” value (10^−6 M) was 52 ×10^4. The “time post initial seeding until which cell proliferation was enabled” value (10^−7 M or 0.41 microgram/liter (FIG. 4)) was at most 11 weeks, the “activity on ex vivo expansion of stem/progenitor cells” value (10^−7 M, along with IL-3, 3 and 5 weeks) was “moderate activity” and the “increase in CD34+Lin− surface expression” value (after two weeks in culture, CD34+ re-selected fraction (FIG. 3C)) was 530 fold. For the same molecule, the “increase in CD34+ expression between week three to eleven” value (antagonist for the first three weeks only, then eight weeks without) was 92 fold, the “expression of differentiation associated antigens CD33, CD14, CD15, CD4, CD3, CD19 and CD61” value (two weeks, FACS (FIGS. 1A-C)) was “significantly inhibited” and the “expression of the CD38 antigen” value (two weeks, FACS (FIGS. 1A-C)) was “completely abolished”. The “expansion of CD34+ compartment since the initiation of the cultures” value (week 11, antagonist for the first three weeks only) was 1621 fold and the “increase in CD34+Lin− expression” value (week eleven, 9 weeks after termination of antagonist treatment) was 16,700 fold.
